Assay results published in paper PMC10233844 (ACS Omega, 2023).

Columns and labels:
[1] = tested on: FAK; settings: read-out: FAK inhibitor IC50; cited from earlier work
[2] = target: thymidylate synthase (TS) (Homo sapiens, UniProt P04818); assay: In vitro thymidylate synthase enzymatic assay; assay type: biochemical; settings: compared with pemetrexed
[3] = tested on: PC-3 cells; assay: Cell cycle analysis by PI staining, flow cytometry; assay type: cell-based, human; settings: PC-3, at pre calculated IC50, 48 h
[4] = tested on: PC-3 cells; assay: Apoptosis analysis, Annexin V-propidium iodide flow cytometry; assay type: cell-based, human; settings: PC-3, 48 h

Chain of thymidylate synthase (TS) (P04818 whole entry): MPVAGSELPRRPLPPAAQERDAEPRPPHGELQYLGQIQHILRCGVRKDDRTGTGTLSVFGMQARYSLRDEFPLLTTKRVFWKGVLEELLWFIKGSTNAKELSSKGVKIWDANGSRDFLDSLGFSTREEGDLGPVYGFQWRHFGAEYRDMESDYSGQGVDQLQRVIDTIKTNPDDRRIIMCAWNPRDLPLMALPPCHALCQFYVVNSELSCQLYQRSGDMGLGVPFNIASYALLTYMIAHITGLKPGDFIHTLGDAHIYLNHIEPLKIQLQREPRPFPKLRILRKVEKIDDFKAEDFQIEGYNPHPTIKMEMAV

N.N.[Cl][Pt][Cl] [Cisplatin]
IC50 [1]: 8.6 µM

C=CCc1ccc(OCc2nn(CN3CCCC3)c(=S)o2)c(OC)c1 [Compound 15, 5-((4-Allyl-2-methoxyphenoxy)methyl)-3-(pyrrolidin-1-ylmethyl)-1,3,4-oxadiazole-2(3H) Thione]
TS inhibition in words [2]: comparable TS repression to pemetrexed

C=CCc1ccc(OCc2nn(CN3CCOCC3)c(=S)o2)c(OC)c1 [Compound 17, 5-((4-Allyl-2-methoxyphenoxy)methyl)-3-(morpholinomethyl)-1,3,4-oxadiazole-2(3H)-thione]
percentage of cell population at G1 phase [3]: 29.30%
percentage of cell population at G2 phase [3]: 8.61%
percentage of cell population at the S phase [3]: 62.07%
necrotic cells (R1, % Parent) [4]: 3.56%
